“Also recorded” adds a separate entry of the source.
Experiments:
decorin = assay: Dot blot assay for decorin protein in dermal fibroblast conditioned medium; format: cell-based, human; conditions: for Decorin (% of control): fibroblasts, mean ± SD; for decorin levels in fibroblasts: single agent, in words
Experimental: Primary human foreskin fibroblasts at passage 2 (P2) were seeded into 12-well plates at 10000 cells/cm^2 and maintained for 24 hours in an atmosphere of 5% carbon dioxide and 4% oxygen in Dulbeccos Modified Eagles Medium (DMEM) supplemented with 10% foetal calf serum. After this time the cells were washed with serum free DMEM and then incubated in fresh serum free DMEM for a further 60 hours. The fibroblast monolayers were then washed again with serum free DMEM. […] This fibroblast conditioned medium was either analysed immediatedly or snap frozen in liquid nitrogen and stored at −70° C. for future analysis. The cells were then counted and data from the dot-blot analysis subsequently standardised to cell number.
Samples of conditioned medium from dermal fibroblasts treated with vehicle (as a control) or test reagents were supplemented with 20 mM dithiothreitol (1:10 dilution of 200 mM stock solution) and 0.1% sodium dodecylsulphate (1:100 dilution of 10% stock solution), mixed well and then incubated at 75° C. for 2 minutes. A standard for the assay was generated by serial dilution of neat fibroblast conditioned medium from fibroblasts seeded at 10000 cells/cm^2 in a 175 cm^2 flask and maintained in serum free DMEM as described above. Assay samples were subsequently applied in triplicate to a prewetted sheet of Immobilon-P transfer membrane using the 96-well Bio-Dot Apparatus from Bio-Rad as described in the manufacturers guidelines. Approximately 200 μl of medium was applied per well. The medium was allowed to filter through the membrane under gravity (30 minutes) after which the membrane was washed twice with PBS (200 μl). These PBS washes were allowed to filter through the membrane under gravity (2×15 minutes). The Bio-Dot apparatus was then attached to a vacuum manifold and a third and final PBS wash carried out under suction. The apparatus was disassembled, the membrane removed and quickly cut as required before being placed in blocking buffer overnight at 4° C. Membranes prepared for decorin analysis were blocked with 3% (w/v) bovine serum albumin (BSA)/ 0.1% (v/v) Tween 20 in phosphate buffered saline (PBS), whilst those for procollagen-I analysis were blocked with 5% (w/v) non fat dried milk powder/0.05% Tween 20 in PBS. The following day, the membranes were probed with 1:10000 dilution of primary antibodies to human decorin (rabbit polyclonal; Biogenesis) for 2 hours at room temperature. The membranes were subsequently washed with TBS/0.05% Tween 20 (3×5 minutes) and then incubated with 1:1000 dilution of ^125I-conjugated anti-rat or anti-rabbit F(ab′)2 fragments (Amersham) as required for 1 hour at room temperature. Following this the Immobilon strips were again washed with TBS/Tween 20 (3×5 minutes) before being allowed to dry in air at room temperature. The dried membranes were wrapped in cellophane and exposed to a Molecular Dynamics storage phosphor screen for 16-18 hours. At the end of this time the exposed screen was scanned by a phosphorimager (Molecular Dynamics Phosphorimager SF) using ImageQuant™ software. Dot intensity was assessed by computer-assisted image analysis using the quantification tools in ImageQuant™, standardised to cell number and the effects of various test reagents on decorin and procollagen-I synthesis were determined relative to a vehicle treated control value of 100 arbitrary units.

[1] = tested on: intracellular adhesion molecules (ICAM); assay: Glutathione (GSH) depletion model in fibroblasts (BSO and PMA), ICAM; format: cell-based, human; conditions: BSO and PMA treated fibroblasts, FIG. 3
Experimental: (§1) Primary human foreskin fibroblasts at passage 2 (P2) were seeded into 96-well plates at 10000 cells/well and maintained for 24 hours in an atmosphere of 5% carbon dioxide in Dulbeccos Modified Eagles Medium (DMEM) supplemented with 10% foetal calf serum. […] Phorbal myristate acetate (PMA) in ethanol/cell media ([…]) was added to the media and the cells incubated for a futher 24 hours. PMA represents an external stressor which induces oxidative stress and inflammatory responses in cells. The fibroblasts/media were then analysed as described below immediately or snap frozen in liquid nitrogen and stored at −70° C. for future analysis. The cells were then counted to ensure no effect on cell number.
Media were discarded and cells washed with Dulbecco PBS. To the washed cells, 150 μl 0.1% Triton X-100 (Sigma) was added for 3 minutes to extract ICAM from cell membrane. The extracts were transferred to Eppendoff centrifuge tubes and centrifuged at 1000 g for 2 min to remove cell debris. A volume of 100 μl supernatant was used for ICAM assay. The soluble ICAM-1 was assessed with commercially available immunoenzymometric assay kit (R&D Systems). Concentrations of ICAM-1 in the samples were determined based on parallelly running standard curve.
L-Buthionine sulfoximine (BSO, Sigma), a specific inhibitor of γ-glutamylcysteine synthetase, was used to deplete intracellular GSH levels. This depletion model is based on the natural degradation of GSH while synthesis is inhibited. BSO is added to the fibroblast cell media after 24 hours (0.25 mM), this is predissolved in DMSO (DMSO, final concentration <1%). In addition, where stated, the antioxidants Epigallocatechingallate (ECGC) and Quercetin were also added to the media after 24 h. The former was dissolved directly in the media, quercetin was initially dissolved in ethanol, this was then diluted 500 fold into the media.

[2] = tested on: basal PGE2 levels in keratinocytes; assay: Keratinocyte PGE2 assay; format: cell-based; conditions: 0.1 μM and 1 μM, 24 h
Description: The medium was then removed and assayed for the pro-inflammatory PGE2 content by Enzyme-linked immunoassay.

[3] = tested on: Prostaglandin E2 (PGE2) production; assay: PMA-induced PGE2 production, fibroblast cell assay; format: cell-based, human; conditions: FIG. 1
Experimental: (§2) It is emphasized that the anti-inflammatory effects were determined by in vitro tests wherein the production of intracellular adhesion molecules (=ICAM) and Prostaglandin E2 (=PGE2) production by the human skin fibroblasts is measured after being induced by the inflammatory modulus phorbyl myristyl acetate (PMA). Effects on basal PGE2 levels in keratinocytes are also measured. A reduction of the levels of ICAM and PGE2 is indicative for the anti-inflammatory effect.
Primary human foreskin fibroblasts at passage 2 (P2) were seeded into 96-well plates at 10000 cells/well and maintained for 24 hours in an atmosphere of 5% carbon dioxide in Dulbeccos Modified Eagles Medium (DMEM) supplemented with 10% foetal calf serum. […] The fibroblasts/media were then analysed as described below immediately or snap frozen in liquid nitrogen and stored at −70° C. for future analysis. The cells were then counted to ensure no effect on cell number.
Volumes of 50 μl culture medium were taken for PGE2 assay after gently shaking the culture plate. PGE2 levels in the medium were determined with a Biotrak PGE2 immunoassay kit (Amersham, UK). The assay is based on the competition between unlabelled PGE2 in the sample and a fixed quantity of horseradish peroxidase labelled PGE2 for a limited amount of fixed PGE2 specific antibody. […]

[4] = tested on: intracellular adhesion molecules (ICAM); assay: ICAM-1 assay in fibroblasts, basal and PMA-induced; format: cell-based, human; conditions: FIG. 2
Experimental: as §2
as §1, with “PMA represents an external stressor which induces oxidative stress and inflammatory responses in cells.” left out
Media were discarded and cells washed with Dulbecco PBS. […] The soluble ICAM-1 was assessed with commercially available immunoenzymometric assay kit (R&D Systems). Concentrations of ICAM-1 in the samples were determined based on parallelly running standard curve.

Compound | Decorin (% of control) (decorin; 1 μg / ml) | Decorin (% of control) (decorin; 2.5 μg / ml) | Decorin (% of control) (decorin; 5 μg / ml) | decorin levels in fibroblasts (decorin) | ICAM response ([1]; antioxidant alone 10 μM) | also measured
O=C(O)c1cc(O)c(O)c(O)c1 [Gallic acid] | 136.9 ± 4.2 % of control | 163.4 ± 6.5 % of control | 161.8 ± 6.6 % of control | can also exert this effect |  | 
O=c1c(O)c(-c2ccc(O)c(O)c2)oc2cc(O)cc(O)c12 [Quercetin] |  |  |  |  | decrease the ICAM response | 
O=c1c(-c2ccc(O)cc2)coc2cc(O)cc(O)c12 [genistein] |  |  |  | can also exert this effect |  | 
O=c1c(-c2ccc(O)cc2)coc2cc(O)ccc12 [diadzein] |  |  |  | can also exert this effect |  | 
CCCCCCCCCCC/C=C\CCCCC(=O)O [Petroselinic acid] |  |  |  | boost decorin levels |  | ICAM response ([1]; petroselinic acid alone 0.01 μM): no effect; basal levels of secreted PGE2 ([2]; FIG. 5): significantly reduce; basal levels of secreted PGE2 ([2]; FIG. 5, listed as petroselinic acid): reduced the basal levels; PGE2 response ([3]; PMA treated cells pre-incubated with 0.1, 1.0, 10 and 100 μM): significant decrease; inflammatory response as measured by PGE2 production ([3]; PMA-challenged fibroblasts, 0.1 μM): dramatically reduces; production of ICAM / ICAM response ([4]; PMA-stimulated fibroblasts pre-incubated with 0.1, 1.0, 10 and 100 μM): reduction in ICAM; also recorded: significant decrease; production of ICAM ([4]; basal condition (control), fibroblasts, 100 μM): reduction in ICAM
O=C(O[C@@H]1Cc2c(O)cc(O)cc2O[C@@H]1c1cc(O)c(O)c(O)c1)c1cc(O)c(O)c(O)c1 [EGCG, Epigallocatechingallate] | 167.5 ± 11.8 % of control | 188.6 ± 9.4 % of control | 258.2 ± 6.1 % of control | can also exert this effect | decrease the ICAM response | 

— patent US6365175B1 (Unilever Patent Holdings, priority 1998, dated 2002)
